According to patent publication US20190290656A1, “PT(IV) PRODRUGS” (YISSUM RESEARCH DEVELOPMENT COMPANY OF THE HEBREW …, priority 2015, published 2019):
“And” between values parts separate entries of the source, which are not always exact repeats. Equal values may be shown once.

How the values were obtained:
PSN-1 cells [1] = test: Glycolysis (Mito-ID O2 sensor), PSN-1; type: cell-based, human; details: IC50 concentrations, 24 h
Protocol: (§1) Glycolysis. The cellular glycolytic activity was assessed using the Mito-ID® O2 Extracellular Sensor Kit according to the manufacturer's instructions (Enzo Life Sciences, Farmingdale, N.Y.). Briefly, PSN-1 cells (15·10^3 per well) were seeded in 96-well plates. After 24 h, cells were treated with Mito-ID® O2 Sensor Probe Solution containing the tested compounds at the appropriate concentration. Fluorescence was estimated using a plate reader (Fluoroskan Ascent FL, Labsystem, Finland) at 350 nm (excitation) and 610 nm (emission).
(§2) Based on the above findings, we investigated the effects determined by derivatives 3a and 3b on 2008 and PSN-1 cancer cell aerobic glycolysis and mitochondria function.
(§3) However, these effects were magnified in PSN-1 cells, having reduction of cellular glycolytic activity of about 36 and 20% for 3a and 3b, respectively. […] This latter result could be explained tacking into consideration that the reference compound [Pt(DACH)(56Phen)] itself, that is also released upon reduction of 3a and 3b, is effective in hampering cellular glycolysis in both tested cancer cell lines. The difference between 3a and 3b might be attributed to the added effect of DCA.

2008 cells = test: Glycolysis (Mito-ID O2 sensor), 2008; type: cell-based, human; details: IC50 concentrations, 24 h
Protocol: as §1, §2, §3

PSN-1 cells [2] = test: Mitochondrial membrane potential (Mito-ID), PSN-1; type: cell-based, human; details: 12 h of incubation
Protocol: Mitochondrial membrane potential (ΔΨ). ΔΨ was assayed using the Mito-ID Membrane Potential Kit according to the manufacturer's instructions (Enzo Life Sciences, Farmingdale, N.Y.). Briefly, 2008 and PSN1 cells were seeded onto 96-well microplates at 5.10^4 cells/well. After 24 h, cells were treated with tested compounds for 6, 12 and 24 h. The mitochondrial depolarizing agent, carbonyl cyanide 3-chlorophenylhydrazone (CCCP) was employed as positive control. An equal volume of cationic dye loading solution was added to each well and cell plates were incubated for additional 30 min at 37° C. Plates were read at excitation/emission wavelengths 490 and 590 nm using a fluorescence microplate reader (Fluoroskan Ascent FL, Labsystem, Finland).
In addition, it is interesting to note that treatment of 2008 and PSN-1 cells with 3a and 3b determined a significant time-dependent increase in the number of cells with depolarized mitochondria (data not shown). In particular, after 12 h of incubation, 3a elicited an increase of about 39% of PSN-1 cells with depolarized mitochondrial potential FIG. 12B). Again, the reference compound [Pt(DACH)(56Phen)] was effective in hampering cellular mitochondrial membrane potential in both tested cancer cell lines.

A2780cisR cells = test: MTT cytotoxicity assay, A2780cisR (cisplatin resistant); type: cell-based, human; details: A2780cisR, 72 h exposure, MTT; read-out: IC50 (median growth inhibitory concentration)
Protocol: (§4) Platinum(IV) complexes were dissolved in DMSO to stock solutions of 1 mg/mL just before the experiment, and a calculated amount of drug solution was added to the cell growth medium to a final solvent concentration of 0.5%, which had no discernible effect on cell killing. Cisplatin (CDDP) and oxaliplatin (OXP) were dissolved just before the experiment in a 0.9% NaCl solution.
(§5) Human prostate adenocarcinoma (PC3) cells were obtained from European Collection of Cell Cultures (ECACC, Salisbury, UK). Human ovarian cancer cell lines A2780 and its cisplatin resistant variant, A2780cisR, were kindly provided by Prof.
(§6) Cancer Res. 1988, 48, 589-601]. […] Triplicate cultures were established for each treatment.

[3] = octanol/water partition, shake-flask method; type: physicochemical
Protocol: To quantify the hydrophobicity of the platinum complexes, partition coefficients (log P) values for octanol/water partition were measured using the shake-flask method.

A498 cells = test: MTT cytotoxicity assay, A498; type: cell-based, human; details: A498, 72 h exposure, read-out: IC50 (median growth inhibitory concentration)
Protocol: as §4, §5, §6

[4] = tested on: Lewis lung carcinoma (LLC); test: In vivo efficacy study, Lewis lung carcinoma mouse model; set-up: species or system C57BL mice; details: day 7-14
Protocol: A preliminary in vivo efficacy study was carried out on a mouse model (see Table 3 below):
Lewis lung carcinoma (LLC) was implanted i.m. (2·10^6 cells inoculum) into the right hind leg of 8-week old inbred C57BL mice (24±3 g body weight). Chemotherapy was delayed until the tumor became visible (day 7).

[5] = tested on: Histone deacetylase (HDAC); test: Histone deacetylase assay (Fluor-de-Lys) in MCF-7 cells; type: cell-based, human; details: MCF-7, 24 h, IC50 concentrations
Protocol: Histone deacetylase activity was determined using Fluor-de-Lys® HDAC fluorometric activity assay kit (Enzo Life Sciences International, Inc., Plymount Meeting, Pa., U.S.A.). […] Fluorescence was measured using a Fluoroskan Ascent FL (Labsystem, Finland) plate reader, with excitation at 360 nm and emission at 460 nm. For comparison purpose, the HDAC activity was also measured in nuclear extracts of MCF-7-treated cells by means of the same fluorometric activity assay kit. In this latter case, MCF-7 nuclear extracts were obtained as follow: cell pellets were re-suspended in lysis buffer [Tris.HCl (10 mM, pH 8.0), KCl (60 mM), EDTA (1.2 mM), DTT (1 mM), PMSF (0.05 mM), NP-40 (0.05%)] and kept on ice for 10 min. Subsequently, samples were centrifuged at 1000 g and re-suspended in the nuclear extraction buffer [Tris.HCl (20 mM, (pH 8.0), NaCl (420 mM), MgCl2 (0.7 mM), EDTA (0.25 mM), glycerol (25%)] for 30 min at 4° C., and then centrifuged at 15000 g for 15 min at 4° C.
The complexes described here were specifically designed to release either VPA of PhB inside the cells in the hope that they will inhibit HDAC activity paving the way for more efficient DNA platination. Thus, in addition to measuring the levels of DNA platination, we also measured the ability of these pro-drugs to inhibit HDAC activity in cells. […] For comparison purposes, the HDAC inhibitory effect determined by tested complexes was also assayed in isolated nuclei of MCF-7 treated cells (FIG. 3B).
The HDAC activity was determined by the Fluor de Lys® Fluorescent Cellular Activity Assay (Enzo Life Sciences).
Also, MCF-7 cells were incubated for 24 h with increasing concentrations of compounds I-VIII and their HDAC activity was determined. The IC50 values for the inhibition of HDAC activity in the cells are depicted in FIG. 3C.

nine cancer cell lines = test: MTT cytotoxicity, over the nine cancer cell lines; details: read-out: average IC50 values for the nine cancer cell lines; mean over nine cell lines, 72 h MTT

Compound | reduction of cellular glycolytic activity (PSN-1 cells [1]) | reduction of glycolysis processes compared with untreated control cells (2008 cells) | increase of cells with depolarized mitochondrial potential (PSN-1 cells [2]) | IC50 (A2780cisR cells) | Log P [3] | IC50 (A498 cells) | Average tumor weight (mean ± SD, g) ([4]; daily dose 1.5 mg kg^-1 i.p.) | Inhibition of tumor growth (%) ([4]; daily dose 1.5 mg kg^-1 i.p.) | Average tumor weight (mean ± SD, g) ([4]; daily dose 3 mg kg^-1 i.p.) | Inhibition of tumor growth (%) ([4]; daily dose 3 mg kg^-1 i.p.) | effect on HDAC activity (in words) [5] | IC50 (nine cancer cell lines)
c,c,t,t,c,c-[(DACH)(56Phen)(PhBu)Pt(μ-OOC—(CH2)2—CONH(CH2)3COO)—Pt(DCA)(NH3)2 (Cl2)](TFA)2 [Compound 3a] | about 36% | about 25% | about 39% |  |  |  |  |  |  |  |  | 
[NH2][Pt]([NH2])([Cl])[Cl] [CDDP, Cisplatin, reference compound] |  |  |  | 13.8 ± 0.2 µM | −2.25 ± 0.04 | 17.5 ± 1.21 µM | 0.150 ± 0.07 g | 73.35% | 0.044 ± 0.07 g | 92.18% | not effective in modifying HDAC activity | 9.18 µM and 9.9 µM
